Reference: PubChem BioAssay (NCI)
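A five-concentration, 48-hour dose response in 96-well plates underlies each endpoint, interpolated linearly between surrounding concentrations. TGI is the concentration that stops growth completely.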

How the values were obtained:
Assay in all cases: NCI anticancer screen, dose series, 48 h
K-562 leukemia = tested on: K-562 leukemia
UACC-257 melanoma = tested on: UACC-257 melanoma
MALME-3M melanoma = tested on: MALME-3M melanoma
MOLT-4 leukemia = tested on: MOLT-4 leukemia
BT-549 breast = tested on: BT-549 breast
OVCAR-8 ovarian = tested on: OVCAR-8 ovarian
PC-3 prostate = tested on: PC-3 prostate
HOP-62 NSCLC = tested on: HOP-62 NSCLC
T-47D breast = tested on: T-47D breast
HS 578T breast = tested on: HS 578T breast
SNB-75 CNS = tested on: SNB-75 CNS
HCT-15 colon = tested on: HCT-15 colon
SF-539 CNS = tested on: SF-539 CNS
ACHN renal = tested on: ACHN renal
HCT-116 colon = tested on: HCT-116 colon
SF-268 CNS = tested on: SF-268 CNS
SK-OV-3 ovarian = tested on: SK-OV-3 ovarian
NCI-H226 lung = tested on: NCI-H226 lung
SN12C renal = tested on: SN12C renal
NCI/ADR-RES ovarian = tested on: NCI/ADR-RES ovarian
HCC-2998 colon = tested on: HCC-2998 colon
M14 melanoma = tested on: M14 melanoma
MDA-N = tested on: MDA-N
SK-MEL-28 melanoma = tested on: SK-MEL-28 melanoma
NCI-H522 lung = tested on: NCI-H522 lung
NCI-H460 lung = tested on: NCI-H460 lung
SR leukemia = tested on: SR leukemia
U251 CNS = tested on: U251 CNS
MDA-MB-231 breast = tested on: MDA-MB-231 breast
786-0 renal = tested on: 786-0 renal
IGROV1 ovarian = tested on: IGROV1 ovarian
HOP-92 NSCLC = tested on: HOP-92 NSCLC
A549 NSCLC = tested on: A549 NSCLC
CCRF-CEM leukemia = tested on: CCRF-CEM leukemia
NCI-H23 lung = tested on: NCI-H23 lung
UACC-62 melanoma = tested on: UACC-62 melanoma
SF-295 CNS = tested on: SF-295 CNS
SW-620 colon = tested on: SW-620 colon
MCF7 breast = tested on: MCF7 breast
TK-10 renal = tested on: TK-10 renal
OVCAR-4 ovarian = tested on: OVCAR-4 ovarian
KM12 colon = tested on: KM12 colon
CAKI-1 renal = tested on: CAKI-1 renal
RPMI-8226 leukemia = tested on: RPMI-8226 leukemia
OVCAR-5 ovarian = tested on: OVCAR-5 ovarian
OVCAR-3 ovarian = tested on: OVCAR-3 ovarian
SK-MEL-2 melanoma = tested on: SK-MEL-2 melanoma
RXF 393 renal = tested on: RXF 393 renal
A498 renal = tested on: A498 renal
EKVX NSCLC = tested on: EKVX NSCLC
LOX IMVI melanoma = tested on: LOX IMVI melanoma
MDA-MB-435 = tested on: MDA-MB-435
HT29 colon = tested on: HT29 colon
SK-MEL-5 melanoma = tested on: SK-MEL-5 melanoma
HL-60(TB) leukemia = tested on: HL-60(TB) leukemia
UO-31 renal = tested on: UO-31 renal
COLO 205 colon = tested on: COLO 205 colon
SNB-19 CNS = tested on: SNB-19 CNS
DU-145 prostate = tested on: DU-145 prostate

In the case of Cc1ccc(C)c(NC(=O)/C(=N\N)C(c2cnc3ccc([N+](=O)[O-])cc3n2)[N+](=O)[O-])c1 (stereo unspecified), the TGI (K-562 leukemia) is reported as greater than 100 µM, the TGI (UACC-257 melanoma) is reported as greater than 100 µM and the TGI (MALME-3M melanoma) is reported as greater than 100 µM. The TGI (MOLT-4 leukemia) was greater than 100 µM, the TGI (BT-549 breast) was greater than 100 µM and the TGI (OVCAR-8 ovarian) was greater than 100 µM. It also gave a TGI (PC-3 prostate) greater than 100 µM, a TGI (HOP-62 NSCLC) greater than 100 µM and a TGI (T-47D breast) greater than 100 µM. It also gave a TGI (HS 578T breast) greater than 100 µM, a TGI (SNB-75 CNS) greater than 100 µM and a TGI (HCT-15 colon) greater than 100 µM. It also gave a TGI (SF-539 CNS) greater than 100 µM, a TGI (ACHN renal) of 40.1 µM and a TGI (HCT-116 colon) greater than 100 µM. It also gave a TGI (SF-268 CNS) greater than 100 µM, a TGI (SK-OV-3 ovarian) greater than 100 µM and a TGI (NCI-H226 lung) greater than 100 µM. It also gave a TGI (SN12C renal) greater than 100 µM, a TGI (NCI/ADR-RES ovarian) greater than 100 µM and a TGI (HCC-2998 colon) greater than 100 µM. For the same compound, the TGI (M14 melanoma) was greater than 100 µM, the TGI (MDA-N) was greater than 100 µM and the TGI (SK-MEL-28 melanoma) was greater than 100 µM. It also gave a TGI (NCI-H522 lung) greater than 100 µM, a TGI (NCI-H460 lung) greater than 100 µM and a TGI (SR leukemia) greater than 100 µM. The TGI (U251 CNS) was greater than 100 µM, the TGI (MDA-MB-231 breast) was greater than 100 µM and the TGI (786-0 renal) was greater than 100 µM. For the same compound, the TGI (IGROV1 ovarian) was greater than 100 µM, the TGI (HOP-92 NSCLC) was greater than 100 µM and the TGI (A549 NSCLC) was greater than 100 µM. For the same compound, the TGI (CCRF-CEM leukemia) was 25.9 µM, the TGI (NCI-H23 lung) was greater than 100 µM and the TGI (UACC-62 melanoma) was greater than 100 µM. The TGI (SF-295 CNS) was greater than 100 µM, the TGI (SW-620 colon) was greater than 100 µM and the TGI (MCF7 breast) was greater than 100 µM. The TGI (TK-10 renal) was greater than 100 µM, the TGI (OVCAR-4 ovarian) was 62.9 µM and the TGI (KM12 colon) was greater than 100 µM. For the same compound, the TGI (CAKI-1 renal) was greater than 100 µM, the TGI (RPMI-8226 leukemia) was greater than 100 µM and the TGI (OVCAR-5 ovarian) was greater than 100 µM. It also gave a TGI (OVCAR-3 ovarian) greater than 100 µM, a TGI (SK-MEL-2 melanoma) greater than 100 µM and a TGI (RXF 393 renal) greater than 100 µM. It also gave a TGI (A498 renal) greater than 100 µM, a TGI (EKVX NSCLC) greater than 100 µM and a TGI (LOX IMVI melanoma) greater than 100 µM. For the same compound, the TGI (MDA-MB-435) was greater than 100 µM, the TGI (HT29 colon) was greater than 100 µM and the TGI (SK-MEL-5 melanoma) was greater than 100 µM. It also gave a TGI (HL-60(TB) leukemia) greater than 100 µM and a TGI (UO-31 renal) greater than 100 µM.

With O=C1/C(=C/c2ccc3c(c2)OCO3)Sc2scc(-c3ccc(O)c(O)c3)[n+]21 the TGI (K-562 leukemia) was 2.93 µM, the TGI (UACC-257 melanoma) was 9.35 µM and the TGI (MOLT-4 leukemia) was greater than 20.1 µM. The TGI (BT-549 breast) was 6.13 µM, the TGI (OVCAR-8 ovarian) was 9.94 µM and the TGI (PC-3 prostate) was 16.2 µM. The TGI (HOP-62 NSCLC) was 41.6 µM, the TGI (T-47D breast) was greater than 100 µM and the TGI (HS 578T breast) was 72.6 µM. The TGI (SNB-75 CNS) was 5.54 µM, the TGI (HCT-15 colon) was 3.61 µM and the TGI (SF-539 CNS) was 7.84 µM. For the same compound, the TGI (COLO 205 colon) was greater than 19.7 µM, the TGI (ACHN renal) was 3.94 µM and the TGI (HCT-116 colon) was 6.29 µM. The TGI (SF-268 CNS) was 97.2 µM, the TGI (SK-OV-3 ovarian) was 17.5 µM and the TGI (NCI-H226 lung) was greater than 100 µM. For the same compound, the TGI (SN12C renal) was 4.7 µM, the TGI (NCI/ADR-RES ovarian) was 4.48 µM and the TGI (HCC-2998 colon) was 3.64 µM. It also gave a TGI (M14 melanoma) of 13.3 µM, a TGI (MDA-N) of 9.81 µM and a TGI (SK-MEL-28 melanoma) greater than 100 µM. The TGI (NCI-H460 lung) was 12.8 µM, the TGI (U251 CNS) was 37.9 µM and the TGI (MDA-MB-231 breast) was greater than 28.8 µM. For the same compound, the TGI (786-0 renal) was 5.48 µM, the TGI (IGROV1 ovarian) was 8.09 µM and the TGI (HOP-92 NSCLC) was 7.58 µM. The TGI (A549 NSCLC) was 46.3 µM, the TGI (NCI-H23 lung) was 9.29 µM and the TGI (UACC-62 melanoma) was 8.28 µM. The TGI (SF-295 CNS) was 25.5 µM, the TGI (MCF7 breast) was greater than 35.2 µM and the TGI (TK-10 renal) was 3.71 µM. For the same compound, the TGI (OVCAR-4 ovarian) was 14 µM, the TGI (KM12 colon) was 13.1 µM and the TGI (CAKI-1 renal) was 2.9 µM. For the same compound, the TGI (RPMI-8226 leukemia) was 4.42 µM, the TGI (OVCAR-5 ovarian) was 30.6 µM and the TGI (OVCAR-3 ovarian) was 15.3 µM. For the same compound, the TGI (SK-MEL-2 melanoma) was 24.8 µM, the TGI (EKVX NSCLC) was 8.25 µM and the TGI (MDA-MB-435) was 13.5 µM. It also gave a TGI (SNB-19 CNS) of 36.2 µM, a TGI (HT29 colon) of 18.6 µM and a TGI (SK-MEL-5 melanoma) greater than 22.4 µM. It also gave a TGI (UO-31 renal) of 6.08 µM and a TGI (DU-145 prostate) of 13.1 µM.
